In US9422338B2 (EpoDose LLC, priority 2011, dated 2016):
pIC50, pKi: −log10 of the molar value.

Molecular target: T1, EPOR (erythropoietin receptor), human recombinant, NSO cells (Homo sapiens, UniProt P19235)
T1 construct: host or cells: NSO cells
T1 sequence (P19235 25-250 limits assumed): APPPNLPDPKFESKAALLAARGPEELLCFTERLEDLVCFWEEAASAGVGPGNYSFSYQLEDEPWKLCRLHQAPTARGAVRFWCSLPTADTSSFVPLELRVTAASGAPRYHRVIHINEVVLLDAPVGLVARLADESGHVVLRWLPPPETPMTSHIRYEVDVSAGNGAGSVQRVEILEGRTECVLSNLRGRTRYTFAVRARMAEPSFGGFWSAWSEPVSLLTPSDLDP
Experiment: EPOR radioligand binding assay ([125I] Erythropoietin competition)
Experimental: IC50 values were determined by a non-linear, least squares regression analysis using MATHIQ™ (computer software for integrating mathematical functions into new or existing software). […] Where presented, the Hill coefficient (nH), defining the slope of the competitive binding curve, was calculated using MATHIQ™.

[1] = Example 1, mimetics varied in N-end, loop and mid sequences
[2] = Example 2, mimetics varied in loop, mid and C-end

Compound	pKi [1]	pIC50 (Example 4, fourth table)	pIC50 (Example 3)	pKi (Example 3, Cheng-Prusoff)	pIC50 (Example 4, fifth table)	other results
CSCC[C@@H]1NC(=O)[C@H](CCCNC(=N)N)NC(=O)C(NC(=O)[C@H](CC(C)C)NC(=O)[C@H](Cc2ccc(O)cc2)NC(=O)[C@H](CC(N)=O)NC(C)=O)CCOCC(C(=O)N[C@@H](CCCNC(=N)N)C(=O)N2CCC[C@H]2C(=O)NCCCCC(=O)NCCCCC(NC(=O)[C@@H]2CCCN2C(=O)[C@H](CCCNC(=N)N)NC(=O)C2COCCC(NC(=O)[C@H](CC(C)C)NC(=O)[C@H](Cc3ccc(O)cc3)NC(=O)[C@H](CC(N)=O)NC(C)=O)C(=O)N[C@@H](CCCNC(=N)N)C(=O)N[C@@H](CCSC)C(=O)NCC(=O)N[C@@H](Cc3c[nH]c4ccccc34)C(=O)N[C@@H](C(C)C)C(=O)N2)C(N)=O)NC(=O)[C@H](C(C)C)NC(=O)[C@H](Cc2c[nH]c3ccccc23)NC(=O)CNC1=O (stereo partly shown) [AC-0005-020]	7.36	7.03				
CSCC[C@@H]1NC(=O)[C@H](CCCNC(=N)N)NC(=O)C(NC(=O)[C@H](CC(C)C)NC(=O)[C@H](Cc2ccc(O)cc2)NC(=O)[C@H](CC(N)=O)NC(C)=O)CCOCC(C(=O)N[C@@H](CCCCNC(=N)N)C(=O)N2CCC[C@H]2C(=O)NCCCCC(=O)NCCCCC(NC(=O)[C@@H]2CCCN2C(=O)[C@H](CCCCNC(=N)N)NC(=O)C2COCCC(NC(=O)[C@H](CC(C)C)NC(=O)[C@H](Cc3ccc(O)cc3)NC(=O)[C@H](CC(N)=O)NC(C)=O)C(=O)N[C@@H](CCCNC(=N)N)C(=O)N[C@@H](CCSC)C(=O)NCC(=O)N[C@@H](Cc3c[nH]c4ccccc34)C(=O)N[C@@H](C(C)C)C(=O)N2)C(N)=O)NC(=O)[C@H](C(C)C)NC(=O)[C@H](Cc2c[nH]c3ccccc23)NC(=O)CNC1=O (stereo partly shown) [AC-0005-021]	7.92	7.60				
CSCC[C@@H]1NC(=O)[C@H](CCCNC(=N)N)NC(=O)C(NC(=O)[C@H](CC(C)C)NC(=O)[C@H](Cc2ccc(O)cc2)NC(=O)[C@H](CC(N)=O)NC(C)=O)CCOCC(C(=O)N[C@@H](CCCCN)C(=O)N2CCC[C@H]2C(=O)NCCCCC(=O)NCCCCC(NC(=O)[C@@H]2CCCN2C(=O)[C@H](CCCCN)NC(=O)C2COCCC(NC(=O)[C@H](CC(C)C)NC(=O)[C@H](Cc3ccc(O)cc3)NC(=O)[C@H](CC(N)=O)NC(C)=O)C(=O)N[C@@H](CCCNC(=N)N)C(=O)N[C@@H](CCSC)C(=O)N[C@@H](CCc3ccccc3)C(=O)N[C@@H](Cc3c[nH]c4ccccc34)C(=O)N[C@@H](C(C)C)C(=O)N2)C(N)=O)NC(=O)[C@H](C(C)C)NC(=O)[C@H](Cc2c[nH]c3ccccc23)NC(=O)[C@H](CCc2ccccc2)NC1=O (stereo partly shown) [AC-0005-023]	7.77	7.46				
CSCC[C@@H]1NC(=O)[C@H](CCCNC(=N)N)NC(=O)C(NC(=O)[C@H](CC(C)C)NC(=O)[C@H](Cc2ccc(O)cc2)NC(=O)[C@H](CC(N)=O)NC(C)=O)CCOCC(C(=O)N[C@@H](CCCCN)C(=O)N2CCC[C@H]2C(=O)NCCCCC(=O)NCCCCC(NC(=O)[C@@H]2CCCN2C(=O)[C@H](CCCCN)NC(=O)C2COCCC(NC(=O)[C@H](CC(C)C)NC(=O)[C@H](Cc3ccc(O)cc3)NC(=O)[C@H](CC(N)=O)NC(C)=O)C(=O)N[C@@H](CCCNC(=N)N)C(=O)N[C@@H](CCSC)C(=O)N3CCC[C@H]3C(=O)N[C@@H](Cc3c[nH]c4ccccc34)C(=O)N[C@@H](C(C)C)C(=O)N2)C(N)=O)NC(=O)[C@H](C(C)C)NC(=O)[C@H](Cc2c[nH]c3ccccc23)NC(=O)[C@@H]2CCCN2C1=O (stereo partly shown) [AC-0005-026]	8.23	7.70	7.87	8.19	7.91	pKi [2]: 8.37; pIC50 (Example 4, sixth table): 8.05; pKi (Example 4, sixth table): 8.37
CSCC[C@@H]1NC(=O)[C@H](CCCNC(=N)N)NC(=O)C(NC(=O)[C@H](CC(C)C)NC(=O)[C@H](Cc2ccc(O)cc2)NC(=O)[C@H](CC(N)=O)NC(C)=O)CCOCC(C(=O)N[C@@H](CCCCNC(=N)N)C(=O)N2CCC[C@H]2C(=O)NCCCCC(=O)NCCCCC(NC(=O)[C@@H]2CCCN2C(=O)[C@H](CCCCNC(=N)N)NC(=O)C2COCCC(NC(=O)[C@H](CC(C)C)NC(=O)[C@H](Cc3ccc(O)cc3)NC(=O)[C@H](CC(N)=O)NC(C)=O)C(=O)N[C@@H](CCCNC(=N)N)C(=O)N[C@@H](CCSC)C(=O)N3CCC[C@H]3C(=O)N[C@@H](Cc3c[nH]c4ccccc34)C(=O)N[C@@H](C(C)C)C(=O)N2)C(N)=O)NC(=O)[C@H](C(C)C)NC(=O)[C@H](Cc2c[nH]c3ccccc23)NC(=O)[C@@H]2CCCN2C1=O (stereo partly shown) [AC-0005-051]	8.34		8.00	8.32	8.02	
CSCC[C@@H]1NC(=O)[C@H](CCCNC(=N)N)NC(=O)C(NC(=O)[C@H](CC(C)C)NC(=O)[C@H](Cc2ccc(O)cc2)NC(C)=O)CCOCC(C(=O)N[C@@H](CCCCNC(=N)N)C(=O)N2CCC[C@H]2C(=O)NCCCCC(=O)NCCCCC(NC(=O)[C@@H]2CCCN2C(=O)[C@H](CCCCNC(=N)N)NC(=O)C2COCCC(NC(=O)[C@H](CC(C)C)NC(=O)[C@H](Cc3ccc(O)cc3)NC(C)=O)C(=O)N[C@@H](CCCNC(=N)N)C(=O)N[C@@H](CCSC)C(=O)N3CCC[C@H]3C(=O)N[C@@H](Cc3c[nH]c4ccccc34)C(=O)N[C@@H](C(C)C)C(=O)N2)C(N)=O)NC(=O)[C@H](C(C)C)NC(=O)[C@H](Cc2c[nH]c3ccccc23)NC(=O)[C@@H]2CCCN2C1=O (stereo partly shown) [AC-0005-052]	7.94		7.61	7.94	7.62	
CSCC[C@@H]1NC(=O)[C@H](CCCNC(=N)N)NC(=O)C(NC(=O)[C@H](CC(C)C)NCOCCCO)CCOCC(C(=O)N[C@@H](CCCCNC(=N)N)C(=O)N2CCC[C@H]2C(=O)NCCCCC(=O)NCCCCC(NC(=O)[C@@H]2CCCN2C(=O)[C@H](CCCCNC(=N)N)NC(=O)C2COCCC(NC(=O)[C@H](CC(C)C)NCOCCCO)C(=O)N[C@@H](CCCNC(=N)N)C(=O)N[C@@H](CCSC)C(=O)N3CCC[C@H]3C(=O)N[C@@H](Cc3c[nH]c4ccccc34)C(=O)N[C@@H](C(C)C)C(=O)N2)C(N)=O)NC(=O)[C@H](C(C)C)NC(=O)[C@H](Cc2c[nH]c3ccccc23)NC(=O)[C@@H]2CCCN2C1=O (stereo partly shown) [AC-0005-053]						NH (Hill coefficient) (Example 3, slope of competitive binding curve): 1.86; Ki (AC-0005-002)/Ki (Example 4, fifth table, Ki relative to that of AC-0005-002): 403; Ki/Ki(EPO) (Example 4, fifth table, Ki relative to that of EPO): 120
CSCC[C@@H]1NC(=O)[C@H](Cc2c[nH]cn2)NC(=O)C(NC(=O)[C@H](CC(C)C)NC(=O)[C@H](Cc2ccc(O)cc2)NC(=O)[C@H](CC(N)=O)NC(C)=O)CCOCC(C(=O)N[C@@H](CCCCNC(=N)N)C(=O)N2CCC[C@H]2C(=O)NCCCCC(=O)NCCCCC(NC(=O)[C@@H]2CCCN2C(=O)[C@H](CCCCNC(=N)N)NC(=O)C2COCCC(NC(=O)[C@H](CC(C)C)NC(=O)[C@H](Cc3ccc(O)cc3)NC(=O)[C@H](CC(N)=O)NC(C)=O)C(=O)N[C@@H](Cc3c[nH]cn3)C(=O)N[C@@H](CCSC)C(=O)N3CCC[C@H]3C(=O)N[C@@H](Cc3c[nH]c4ccccc34)C(=O)N[C@@H](C(C)C)C(=O)N2)C(N)=O)NC(=O)[C@H](C(C)C)NC(=O)[C@H](Cc2c[nH]c3ccccc23)NC(=O)[C@@H]2CCCN2C1=O (stereo partly shown) [AC-0005-054]	7.81		7.19	7.51	7.48	

Further lines, with some results ahead:

pKi [1]	pIC50 (Example 4, fourth table)	pIC50 (Example 3)	pKi (Example 3, Cheng-Prusoff)	pIC50 (Example 4, fifth table)	Compound	other results
7.77	7.44				CSCC[C@@H]1NC(=O)[C@H](CCCNC(=N)N)NC(=O)C(NC(=O)[C@H](CC(C)C)NC(=O)[C@H](Cc2ccc(O)cc2)NC(=O)[C@H](CC(N)=O)NC(C)=O)CCOCC(C(=O)N[C@@H](CCCCN)C(=O)N2CCC[C@H]2C(=O)NCCCCC(=O)NCCCCC(NC(=O)[C@@H]2CCCN2C(=O)[C@H](CCCCN)NC(=O)C2COCCC(NC(=O)[C@H](CC(C)C)NC(=O)[C@H](Cc3ccc(O)cc3)NC(=O)[C@H](CC(N)=O)NC(C)=O)C(=O)N[C@@H](CCCNC(=N)N)C(=O)N[C@@H](CCSC)C(=O)N[C@@H](Cc3ccccc3)C(=O)N[C@@H](Cc3c[nH]c4ccccc34)C(=O)N[C@@H](C(C)C)C(=O)N2)C(N)=O)NC(=O)[C@H](C(C)C)NC(=O)[C@H](Cc2c[nH]c3ccccc23)NC(=O)[C@H](Cc2ccccc2)NC1=O (stereo partly shown) [AC-0005-022]	
7.47	7.14				CSCC[C@@H]1NC(=O)[C@H](CCCNC(=N)N)NC(=O)C(NC(=O)[C@H](CC(C)C)NC(=O)[C@H](Cc2ccc(O)cc2)NC(=O)[C@H](CC(N)=O)NC(C)=O)CCOCC(C(=O)N[C@@H](CCCCN)C(=O)N2CCC[C@H]2C(=O)NCCCCC(=O)NCCCCC(NC(=O)[C@@H]2CCCN2C(=O)[C@H](CCCCN)NC(=O)C2COCCC(NC(=O)[C@H](CC(C)C)NC(=O)[C@H](Cc3ccc(O)cc3)NC(=O)[C@H](CC(N)=O)NC(C)=O)C(=O)N[C@@H](CCCNC(=N)N)C(=O)N[C@@H](CCSC)C(=O)N[C@@H](CC(C)C)C(=O)N[C@@H](Cc3c[nH]c4ccccc34)C(=O)N[C@@H](C(C)C)C(=O)N2)C(N)=O)NC(=O)[C@H](C(C)C)NC(=O)[C@H](Cc2c[nH]c3ccccc23)NC(=O)[C@H](CC(C)C)NC1=O (stereo partly shown) [AC-0005-024]	
8.32		7.96	8.28	7.99	CSCC[C@@H]1NC(=O)[C@H](CCCNC(=N)N)NC(=O)C(NC(=O)[C@H](CC(C)C)NC(=O)[C@H](Cc2ccc(O)cc2)NC(=O)[C@H](CC(N)=O)NC(C)=O)CCOCC(C(=O)N[C@@H](CCCCNC(=N)N)C(=O)N2CCC[C@H]2C(=O)NCCCCC(=O)NCCCCC(NC(=O)[C@@H]2CCCN2C(=O)[C@H](CCCCNC(=N)N)NC(=O)C2COCCC(NC(=O)[C@H](CC(C)C)NC(=O)[C@H](Cc3ccc(O)cc3)NC(=O)[C@H](CC(N)=O)NC(C)=O)C(=O)N[C@@H](CCCNC(=N)N)C(=O)N[C@@H](CCSC)C(=O)N3CCC[C@H]3C(=O)N[C@@H](Cc3ccc4ccccc4c3)C(=O)N[C@@H](C(C)C)C(=O)N2)C(N)=O)NC(=O)[C@H](C(C)C)NC(=O)[C@H](Cc2ccc3ccccc3c2)NC(=O)[C@@H]2CCCN2C1=O (stereo partly shown) [AC-0005-055]	pKi [2]: 8.22; pIC50 (Example 4, sixth table): 7.90; pKi (Example 4, sixth table): 8.22
